Like-named read-outs stand apart in the source and are kept apart here. Ends that are not written are not given here. Peptide text beside a SMILES is read from it.
Key:
CRF2R = target: T1, CRF2R (Homo sapiens, UniProt Q13324); experiment: CRF2R agonist activation (EC50 / Emax), called comparative CRF binding; format: cell-based
T1 sequence (Q13324 1-411): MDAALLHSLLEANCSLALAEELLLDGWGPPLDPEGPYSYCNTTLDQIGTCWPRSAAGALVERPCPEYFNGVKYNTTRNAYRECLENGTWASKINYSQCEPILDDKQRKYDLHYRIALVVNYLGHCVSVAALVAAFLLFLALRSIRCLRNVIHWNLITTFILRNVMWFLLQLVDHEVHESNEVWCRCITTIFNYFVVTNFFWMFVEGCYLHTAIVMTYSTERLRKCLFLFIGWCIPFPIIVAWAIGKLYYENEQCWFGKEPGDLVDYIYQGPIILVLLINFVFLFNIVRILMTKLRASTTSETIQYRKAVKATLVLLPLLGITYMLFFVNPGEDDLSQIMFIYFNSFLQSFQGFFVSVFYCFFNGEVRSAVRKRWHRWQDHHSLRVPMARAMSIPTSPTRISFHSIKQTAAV
Outline: (§1)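 CRFR-expressing cells + peptide vs vehicle; read-out cAMP (lysate assay) or CRE-linked reporter expression (luciferase, CAT, fluorescent protein, alkaline phosphatase, etc.). Signal compared against vehicle-treated cells.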

CRF1R = target: T2, CRF1R (Homo sapiens, UniProt P34998); experiment: CRF1R agonist activation (EC50 / Emax), called comparative CRF binding; format: cell-based
T2 sequence (P34998 24-415): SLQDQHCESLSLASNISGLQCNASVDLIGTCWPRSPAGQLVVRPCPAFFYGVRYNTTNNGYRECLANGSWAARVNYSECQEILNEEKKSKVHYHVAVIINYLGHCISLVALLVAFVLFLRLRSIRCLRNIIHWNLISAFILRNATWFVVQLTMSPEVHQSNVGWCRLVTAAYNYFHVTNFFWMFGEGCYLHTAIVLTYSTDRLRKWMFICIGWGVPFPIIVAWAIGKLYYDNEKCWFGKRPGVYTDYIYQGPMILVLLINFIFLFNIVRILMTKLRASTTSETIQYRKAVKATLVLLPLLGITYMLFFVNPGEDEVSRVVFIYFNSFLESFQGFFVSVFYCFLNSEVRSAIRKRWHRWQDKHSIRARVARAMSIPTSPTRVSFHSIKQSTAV
Outline: as §1

Row | Molecule | EC50 (CRF2R; read-out: CRF2R EC50) [nM] | Emax (CRF2R; read-out: CRF2R Emax) [%] | EC50 (CRF1R; read-out: CRF1R EC50) [nM] | Emax (CRF1R; read-out: CRF1R Emax) [%] | EC50 (CRF2R) [nM] | Emax (CRF2R; Emax, read-out: CRF2R (Emax %)) [%] | EC50 (CRF1R) [nM] | Emax (CRF1R; Emax, read-out: CRF1R (Emax %)) [%]
1 | CC[C@H](C)[C@H](NC(=O)[C@H](CC(N)=O)NC(=O)[C@H](C)NC(=O)[C@H](CC(N)=O)NC(=O)[C@H](CCC(N)=O)NC(=O)[C@H](CCC(=O)O)NC(=O)[C@H](C)NC(=O)[C@H](CCCNC(=N)N)NC(=O)[C@H](CCC(=O)O)NC(=O)[C@H](CCCNC(=N)N)NC(=O)[C@H](CCC(N)=O)NC(=O)[C@H](CO)NC(=O)[C@H](CCC(N)=O)NC(=O)[C@@H](NC(=O)[C@H](CCCCN)NC(=O)[C@H](CCC(=O)O)NC(=O)[C@H](CC(C)C)NC(=O)[C@H](CCC(=O)O)NC(=O)[C@H](CC(C)C)NC(=O)[C@H](CC(C)C)NC(=O)[C@@H](NC(=O)[C@H](CCCNC(=N)N)NC(=O)[C@H](CC(C)C)NC(=O)[C@H](CC(C)C)NC(=O)[C@H](CC(C)C)NC(=O)[C@H](CC(C)C)NC(=O)[C@@H]1CCCN1C(=O)[C@H](CC(C)C)NC(=O)[C@H](CC(=O)O)NC(=O)[C@@H](NC(=O)[C@H](CO)NC(=O)[C@H](CC(C)C)NC(=O)[C@H](CO)NC(=O)[C@@H]1CCCN1C(=O)[C@H](CC(N)=O)NC(=O)[C@@H](N)CC(=O)O)[C@@H](C)CC)[C@@H](C)O)[C@@H](C)O)C(=O)N[C@@H](Cc1ccccc1)C(=O)N[C@@H](C)C(=O)N[C@@H](CC(N)=O)C(=O)N[C@H](C(N)=O)C(C)C [compound 326] (H-DNPSLSIDLPLLLLRTLLELEKTQSQRERAEQNANIFANV-NH2; N-terminus assumed) | 33.7 | 100 | ≥ 1000 | 30.1 |  |  |  | 
2 | CC[C@H](C)[C@H](NC(=O)[C@H](CCCNC(=N)N)NC(=O)[C@H](C)NC(=O)[C@H](CC(N)=O)NC(=O)[C@H](CCC(N)=O)NC(=O)[C@H](CCC(=O)O)NC(=O)[C@H](C)NC(=O)[C@H](CCCNC(=N)N)NC(=O)[C@H](CCC(=O)O)NC(=O)[C@H](CCCNC(=N)N)NC(=O)[C@H](CCC(N)=O)NC(=O)[C@H](CO)NC(=O)[C@H](CCC(N)=O)NC(=O)[C@@H](NC(=O)[C@H](CCCCN)NC(=O)[C@H](CCC(=O)O)NC(=O)[C@H](CC(C)C)NC(=O)[C@H](CCC(=O)O)NC(=O)[C@H](CC(C)C)NC(=O)[C@H](CC(C)C)NC(=O)[C@@H](NC(=O)[C@H](CCCNC(=N)N)NC(=O)[C@H](CC(C)C)NC(=O)[C@H](CC(C)C)NC(=O)[C@H](CC(C)C)NC(=O)[C@H](CC(C)C)NC(=O)[C@@H]1CCCN1C(=O)[C@H](CC(C)C)NC(=O)[C@H](CC(=O)O)NC(=O)[C@@H](NC(=O)[C@H](CO)NC(=O)[C@H](CC(C)C)NC(=O)[C@H](CO)NC(=O)[C@@H]1CCCN1C(=O)[C@H](CC(N)=O)NC(=O)[C@@H](N)CC(=O)O)[C@@H](C)CC)[C@@H](C)O)[C@@H](C)O)C(=O)N[C@@H](Cc1ccccc1)C(=O)N[C@@H](C)C(=O)N[C@@H](CCCNC(=N)N)C(=O)N[C@H](C(N)=O)C(C)C [compound 341] (H-DNPSLSIDLPLLLLRTLLELEKTQSQRERAEQNARIFARV-NH2; N-terminus assumed) |  | 95.5 |  | 82.3 |  |  |  | 
3 | CC[C@H](C)[C@H](N)C(=O)N[C@H](C(=O)N[C@@H](CC(C)C)C(=O)N[C@@H](CO)C(=O)N[C@@H](CC(C)C)C(=O)N[C@@H](CC(=O)O)C(=O)N[C@H](C(=O)N1CCC[C@H]1C(=O)N[C@H](C(=O)NCC(=O)N[C@@H](CC(C)C)C(=O)N[C@@H](CC(C)C)C(=O)N[C@@H](CCC(N)=O)C(=O)N[C@H](C(=O)N[C@@H](CC(C)C)C(=O)N[C@@H](CC(C)C)C(=O)N[C@@H](CCC(=O)O)C(=O)N[C@@H](CCC(N)=O)C(=O)N[C@@H](C)C(=O)N[C@@H](CCCCN)C(=O)N[C@@H](C)C(=O)N[C@@H](CCCNC(=N)N)C(=O)N[C@@H](C)C(=O)N[C@@H](C)C(=O)N[C@@H](CCCNC(=N)N)C(=O)N[C@@H](CCC(=O)O)C(=O)N[C@@H](CCC(N)=O)C(=O)N[C@@H](C)C(=O)N[C@H](C(=O)N[C@H](C(=O)N[C@@H](CC(N)=O)C(=O)N[C@@H](C)C(=O)N[C@@H](CCCNC(=N)N)C(=O)N[C@H](C(=O)N[C@@H](CC(C)C)C(=O)N[C@@H](C)C(=O)N[C@@H](CCCNC(=N)N)C(=O)N[C@H](C(N)=O)C(C)C)[C@@H](C)CC)[C@@H](C)O)[C@@H](C)O)[C@@H](C)CC)[C@@H](C)CC)C(C)C)C(C)C [compound 109] (H-IVLSLDVPIGLLQILLEQAKARAAREQATTNARILARV-NH2; N-terminus assumed) |  | 91.7 |  | 6.7 |  |  |  | 
4 | CC[C@H](C)[C@H](NC(=O)[C@H](C)NC(=O)[C@H](CC(N)=O)NC(=O)[C@H](CCC(N)=O)NC(=O)[C@H](CCC(=O)O)NC(=O)[C@H](C)NC(=O)[C@H](CCCNC(=N)N)NC(=O)[C@H](CCC(=O)O)NC(=O)[C@H](CCCNC(=N)N)NC(=O)[C@H](CCC(N)=O)NC(=O)[C@H](CO)NC(=O)[C@H](CCC(N)=O)NC(=O)[C@@H](NC(=O)[C@H](CCCNC(=N)N)NC(=O)[C@H](C)NC(=O)[C@H](CC(C)C)NC(=O)[C@H](CCC(=O)O)NC(=O)[C@H](CC(C)C)NC(=O)[C@H](CC(C)C)NC(=O)[C@@H](NC(=O)[C@H](CCCNC(=N)N)NC(=O)[C@H](CC(C)C)NC(=O)[C@H](CC(C)C)NC(=O)[C@H](Cc1ccccc1)NC(=O)[C@H](Cc1ccccc1)NC(=O)[C@@H]1CCCN1C(=O)[C@H](CC(C)C)NC(=O)[C@H](CC(=O)O)NC(=O)[C@@H](NC(=O)[C@H](CO)NC(=O)[C@H](CC(C)C)NC(=O)[C@H](CO)NC(=O)[C@@H]1CCCN1C(=O)[C@H](CC(N)=O)NC(=O)[C@@H](N)CC(=O)O)[C@@H](C)CC)[C@@H](C)O)[C@@H](C)O)C(=O)N[C@H](C(=O)N[C@@H](Cc1ccccc1)C(=O)N[C@@H](C)C(=O)N[C@@H](CO)C(=O)N[C@H](C(N)=O)C(C)C)[C@@H](C)CC [compound 184] (H-DNPSLSIDLPFFLLRTLLELARTQSQRERAEQNAIIFASV-NH2; N-terminus assumed) |  | 96.5 |  | 77.3 |  |  |  | 
5 | CC[C@H](C)[C@H](N)C(=O)N[C@H](C(=O)N[C@@H](CC(C)C)C(=O)N[C@@H](CO)C(=O)N[C@@H](CC(C)C)C(=O)N[C@@H](CC(=O)O)C(=O)N[C@H](C(=O)N1CCC[C@H]1C(=O)N[C@H](C(=O)NCC(=O)N[C@@H](CC(C)C)C(=O)N[C@@H](CC(C)C)C(=O)N[C@@H](CCC(N)=O)C(=O)N[C@H](C(=O)N[C@@H](CC(C)C)C(=O)N[C@@H](CC(C)C)C(=O)N[C@@H](CCC(=O)O)C(=O)N[C@@H](CCC(N)=O)C(=O)N[C@@H](C)C(=O)N[C@@H](CCCNC(=N)N)C(=O)N[C@@H](C)C(=O)N[C@@H](CCCNC(=N)N)C(=O)N[C@@H](C)C(=O)N[C@@H](C)C(=O)N[C@@H](CCCNC(=N)N)C(=O)N[C@@H](CCC(=O)O)C(=O)N[C@@H](CCC(N)=O)C(=O)N[C@@H](C)C(=O)N[C@H](C(=O)N[C@@H](CO)C(=O)N[C@@H](CC(N)=O)C(=O)N[C@@H](CCCNC(=N)N)C(=O)N[C@@H](CCCCN)C(=O)N[C@@H](CC(C)C)C(=O)N[C@@H](CCSC)C(=O)N[C@@H](CCC(=O)O)C(=O)N[C@H](C(=O)N[C@H](C(N)=O)[C@@H](C)CC)[C@@H](C)CC)[C@@H](C)O)[C@@H](C)CC)[C@@H](C)CC)C(C)C)C(C)C [compound 163] (H-IVLSLDVPIGLLQILLEQARARAAREQATSNRKLMEII-NH2; N-terminus assumed) | 4.49 | 96 | > 100 | 13 |  |  |  | 
6 | CC[C@H](C)[C@H](NC(=O)[C@H](CC(=O)O)NC(=O)[C@H](CC(C)C)NC(=O)[C@H](CC(C)C)NC(=O)[C@H](CCCCN)NC(=O)[C@H](CCCNC(=N)N)NC(=O)[C@H](CC(N)=O)NC(=O)[C@H](CO)NC(=O)[C@H](Cc1c[nH]cn1)NC(=O)[C@H](C)NC(=O)[C@H](CCC(N)=O)NC(=O)[C@H](CCC(N)=O)NC(=O)[C@H](C)NC(=O)[C@H](CC(C)C)NC(=O)[C@H](CCC(N)=O)NC(=O)[C@H](CC(=O)O)NC(=O)[C@H](C)NC(=O)[C@H](CCCCN)NC(=O)[C@@H](NC(=O)[C@H](CCSC)NC(=O)[C@H](CCC(=O)O)NC(=O)[C@H](CC(C)C)NC(=O)[C@@H](NC(=O)[C@H](CCC(=O)O)NC(=O)[C@H](CCCNC(=N)N)NC(=O)[C@H](CC(C)C)NC(=O)[C@H](CC(C)C)NC(=O)[C@H](Cc1c[nH]cn1)NC(=O)[C@H](Cc1ccccc1)NC(=O)[C@@H](NC(=O)[C@H](CC(C)C)NC(=O)[C@H](CC(=O)O)NC(=O)[C@H](CC(C)C)NC(=O)[C@H](CO)NC(=O)[C@@H](NC(=O)[C@@H]1CCCN1C(=O)[C@@H]1CCCN1C(=O)[C@H](CCC(=O)O)NC(=O)[C@H](CCC(N)=O)NC(=O)[C@@H](N)CO)[C@@H](C)CC)[C@@H](C)O)C(C)C)[C@@H](C)O)C(=O)N[C@@H](C)C(N)=O [oCRF, sheep corticotropin releasing factor, reference compound] |  |  |  |  | > 100 | 33 | 27.4 | 98
7 | SQEPPISLDLPLGLLREVLEMTKADQLAQQAHSNRKLLDIA-NH2 [compound 90] |  | 12.2 |  | 4 |  |  |  | 

Reference: patent US6936585B2, “Corticotropin releasing factor 2 receptor agonists” (priority 2002, dated 2005)
